This passage reports melting point results from US8183262B2, “Pyridine derivatives as mGluR2 antagonists” (Hoffmann-La Roche Inc., priority 2007, dated 2012).

Consider `Cc1cc(-c2ccc(Cl)c(Cl)c2)nc(-c2cccc(-c3ccc(N)nc3)c2)n1` [Example 147, 5-{3-[4-(3,4-Dichloro-phenyl)-6-methyl-pyrimidin-2-yl]-phenyl}-pyridin-2-ylamine], for which the melting point was determined as 170.5 °C. Next, `FC(F)(F)c1ccc(-c2cc(C(F)(F)F)nc(-n3cnc(-c4cccnc4)n3)n2)cc1` [Example 149, 2-(3-Pyridin-3-yl-[1,2,4]triazol-1-yl)-4-trifluoromethyl-6-(4-trifluoromethyl-phenyl)-pyrimidine]: 190 °C; `Cc1cc(-c2ccc(C(F)(F)F)cc2)nc(-n2cc(-c3ccc(N)nc3)nc2C)n1` [Example 150, 5-{2-Methyl-1-[4-methyl-6-(4-trifluoromethyl-phenyl)-pyrimidin-2-yl]-1H-imidazol-4-yl}-pyridin-2-ylamine]: 227.5 °C; `Cc1cc(-c2ccc(C(F)(F)F)cc2)nc(-n2cnc(-c3ccc(N)nc3)n2)n1` [Example 151, 5-{1-[4-Methyl-6-(4-trifluoromethyl-phenyl)-pyrimidin-2-yl]-1H-[1,2,4]triazol-3-yl}-pyridin-2-ylamine]: 244 °C. Take `CC(C)c1cc(-c2ccc(C(F)(F)F)cc2)nc(-n2cnc(-c3ccc(N)nc3)c2)n1` [Example 152, 5-{1-[4-Isopropyl-6-(4-trifluoromethyl-phenyl)-pyrimidin-2-yl]-1H-imidazol-4-yl}-pyridin-2-ylamine]: the melting point is 274.5 °C.

For `CC(C)c1cc(-c2ccc(C(F)(F)F)cc2)nc(-n2cnc(-c3cnc(N)nc3)c2)n1` [Example 153, 5-{1-[4-Isopropyl-6-(4-trifluoromethyl-phenyl)-pyrimidin-2-yl]-1H-imidazol-4-yl}-pyrimidin-2-ylamine], the melting point is 277 °C.

Regarding `Cc1c(-c2ccc(N)nc2)ncn1-c1nc(-c2ccc(C(F)(F)F)cc2)cc(C(F)(F)F)n1` [Example 154, 5-{5-Methyl-1-[4-trifluoromethyl-6-(4-trifluoromethyl-phenyl)-pyrimidin-2-yl]-1H-imidazol-4-yl}-pyridin-2-ylamine], the melting point was found to be 252 °C. Next, `CC(C)(C)NS(=O)(=O)c1cccc(-c2cc(-c3nc(-c4ccc(C(F)(F)F)cc4)cc(C(F)(F)F)n3)ccn2)c1` [Example 156, N-tert-Butyl-3-{4-[4-trifluoromethyl-6-(4-trifluoromethyl-phenyl)-pyrimidin-2-yl]-pyridin-2-yl}-benzenesulfonamide]: 211 °C.

Turning to `NS(=O)(=O)c1cccc(-c2cccc(-c3nc(-c4ccc(C(F)(F)F)cc4)cc(C(F)(F)F)n3)c2)c1` [Example 157, 3′-[4-Trifluoromethyl-6-(4-trifluoromethyl-phenyl)-pyrimidin-2-yl]-biphenyl-3-sulfonic acid amide], the melting point was 267 °C. For the compound `NS(=O)(=O)c1cccc(-c2cc(-c3nc(-c4ccc(C(F)(F)F)cc4)cc(C(F)(F)F)n3)ccn2)c1` [Example 158, 3-{4-[4-Trifluoromethyl-6-(4-trifluoromethyl-phenyl)-pyrimidin-2-yl]-pyridin-2-yl}-benzenesulfonamide], the melting point was 237 °C.

In the case of `NS(=O)(=O)c1ccc(-c2cn(-c3nc(-c4ccc(C(F)(F)F)cc4)cc(C(F)(F)F)n3)cn2)cc1` [Example 159, 4-{1-[4-Trifluoromethyl-6-(4-trifluoromethyl-phenyl)-pyrimidin-2-yl]-1H-imidazol-4-yl}-benzenesulfonamide], the melting point turned out to be 292 °C. Consider `NS(=O)(=O)c1cccc(-c2cn(-c3nc(-c4ccc(C(F)(F)F)cc4)cc(C(F)(F)F)n3)cn2)c1` [Example 160, 3-{1-[4-Trifluoromethyl-6-(4-trifluoromethyl-phenyl)-pyrimidin-2-yl]-1H-imidazol-4-yl}-benzenesulfonamide], for which the melting point stood at 198 °C. Compound `NS(=O)(=O)c1ccc(-c2cccc(-c3nc(-c4ccc(C(F)(F)F)cc4)cc(C(F)(F)F)n3)c2)s1` [Example 161, 5-{3-[4-Trifluoromethyl-6-(4-trifluoromethyl-phenyl)-pyrimidin-2-yl]-phenyl}-thiophene-2-sulfonic acid amide] yielded a melting point of 204 °C. Next, `CC(C)(C)NS(=O)(=O)c1ccc(-c2cc(-c3nc(-c4ccc(C(F)(F)F)cc4)cc(C(F)(F)F)n3)ccn2)s1` [Example 162, 5-{4-[4-Trifluoromethyl-6-(4-trifluoromethyl-phenyl)-pyrimidin-2-yl]-pyridin-2-yl}-thiophene-2-sulfonic acid tert-butylamide]: 237 °C; `NS(=O)(=O)c1ccc(-c2cn(-c3nc(-c4ccc(C(F)(F)F)cc4)cc(C(F)(F)F)n3)cn2)s1` [Example 163, 5-{1-[4-Trifluoromethyl-6-(4-trifluoromethyl-phenyl)-pyrimidin-2-yl]-1H-imidazol-4-yl}-thiophene-2-sulfonic acid amide]: 281 °C. `NS(=O)(=O)c1ccc(-c2cc(-c3nc(-c4ccc(C(F)(F)F)cc4)cc(C(F)(F)F)n3)ccn2)s1` [Example 164, 5-{4-[4-Trifluoromethyl-6-(4-trifluoromethyl-phenyl)-pyrimidin-2-yl]-pyridin-2-yl}-thiophene-2-sulfonic acid amide] registered a melting point of 262 °C. The compound `Cc1cc(-c2ccc(C(F)(F)F)cc2)nc(-c2cccc(-c3cccc(S(=O)(=O)NC(C)(C)C)c3)c2)n1` [Example 165, 3′-[4-Methyl-6-(4-trifluoromethyl-phenyl)-pyrimidin-2-yl]-biphenyl-3-sulfonic acid tert-butylamide] yielded a melting point of 163 °C. Next, `Cc1cc(-c2ccc(Cl)cc2)nc(-c2cccc(-c3cccc(S(N)(=O)=O)c3)c2)n1` [Example 166, 3′-[4-(4-Chloro-phenyl)-6-methyl-pyrimidin-2-yl]-biphenyl-3-sulfonic acid amide]: 221 °C; `Cc1cc(-c2ccc(C(F)(F)F)cc2)nc(-c2ccnc(-c3cccc(S(N)(=O)=O)c3)c2)n1` [Example 168, 3-{4-[4-Methyl-6-(4-trifluoromethyl-phenyl)-pyrimidin-2-yl]-pyridin-2-yl}-benzenesulfonamide]: 218.5 °C; `CC(C)(C)NS(=O)(=O)c1ccc(-c2cccc(-c3nc(-c4ccc(Cl)cc4)cc(C(F)(F)F)n3)c2)s1` [Example 169, 5-{3-[4-(4-Chloro-phenyl)-6-trifluoromethyl-pyrimidin-2-yl]-phenyl}-thiophene-2-sulfonic acid tert-butylamide]: 197.5 °C. For `NS(=O)(=O)c1ccc(-c2cc(-c3nc(-c4ccc(Cl)cc4)cc(C(F)(F)F)n3)ccn2)s1` [Example 170, 5-{4-[4-(4-Chloro-phenyl)-6-trifluoromethyl-pyrimidin-2-yl]-pyridin-2-yl}-thiophene-2-sulfonic acid amide] the value was 290 °C.

`NS(=O)(=O)c1ccc(-c2cn(-c3nc(-c4ccc(Cl)cc4)cc(C(F)(F)F)n3)cn2)s1` [Example 171, 5-{1-[4-(4-Chloro-phenyl)-6-trifluoromethyl-pyrimidin-2-yl]-1H-imidazol-4-yl}-thiophene-2-sulfonic acid amide] had a melting point of 284 °C. As to `Cc1cc(-c2ccc(C(F)(F)F)cc2)nc(-c2cccc(-c3ccc(S(N)(=O)=O)s3)c2)n1` [Example 172, 5-{3-[4-Methyl-6-(4-trifluoromethyl-phenyl)-pyrimidin-2-yl]-phenyl}-thiophene-2-sulfonic acid amide], the melting point was determined as 225 °C. For `Cc1cc(-c2ccc(Cl)cc2)nc(-c2cccc(-c3ccc(S(N)(=O)=O)s3)c2)n1` [Example 173, 5-{3-[4-(4-Chloro-phenyl)-6-methyl-pyrimidin-2-yl]-phenyl}-thiophene-2-sulfonic acid amide] the value was 227 °C; for `NS(=O)(=O)c1ccc(-c2cccc(-c3nc(-c4ccc(Cl)cc4)cc(C(F)(F)F)n3)c2)s1` [Example 174, 5-{3-[4-(4-Chloro-phenyl)-6-trifluoromethyl-pyrimidin-2-yl]-phenyl}-thiophene-2-sulfonic acid amide], 226 °C. For `NS(=O)(=O)c1ccc(-c2cn(-c3nc(-c4ccc(Cl)cc4)cc(C(F)(F)F)n3)cn2)cc1` [Example 175, 4-{1-[4-(4-Chloro-phenyl)-6-trifluoromethyl-pyrimidin-2-yl]-1H-imidazol-4-yl}-benzenesulfonamide] the value was 324 °C.

`Cc1cc(-c2ccc(Cl)cc2)nc(-n2cnc(-c3cccc(S(N)(=O)=O)c3)c2)n1` [Example 176, 3-{1-[4-(4-Chloro-phenyl)-6-methyl-pyrimidin-2-yl]-1H-imidazol-4-yl}-benzenesulfonamide] gave a melting point of 275 °C.

For `NS(=O)(=O)c1cccc(-c2cn(-c3nc(-c4ccc(Cl)cc4)cc(C(F)(F)F)n3)cn2)c1` [Example 177, 3-{1-[4-(4-Chloro-phenyl)-6-trifluoromethyl-pyrimidin-2-yl]-1H-imidazol-4-yl}-benzenesulfonamide], the melting point came out at 225 °C.

In the case of `NS(=O)(=O)c1cccc(-c2cccc(-c3nc(-c4ccc(Cl)cc4)cc(C(F)(F)F)n3)c2)c1` [Example 178, 3′-[4-(4-Chloro-phenyl)-6-trifluoromethyl-pyrimidin-2-yl]-biphenyl-3-sulfonic acid amide], the melting point came out at 165 °C. Next, `NS(=O)(=O)c1cccc(-c2cc(-c3nc(-c4ccc(Cl)cc4)cc(C(F)(F)F)n3)ccn2)c1` [Example 179, 3-{4-[4-(4-Chloro-phenyl)-6-trifluoromethyl-pyrimidin-2-yl]-pyridin-2-yl}-benzenesulfonamide]: 182 °C; `Cc1cc(-c2ccc(Cl)cc2)nc(-n2cnc(-c3ccc(S(N)(=O)=O)cc3)c2)n1` [Example 180, 4-{1-[4-(4-Chloro-phenyl)-6-methyl-pyrimidin-2-yl]-1H-imidazol-4-yl}-benzenesulfonamide]: 312 °C; `NS(=O)(=O)c1cnc(-c2cn(-c3nc(-c4ccc(C(F)(F)F)cc4)cc(C(F)(F)F)n3)cn2)s1` [Example 181, 2-{1-[4-Trifluoromethyl-6-(4-trifluoromethyl-phenyl)-pyrimidin-2-yl]-1H-imidazol-4-yl}-thiazole-5-sulfonic acid amide]: 264 °C.

By melting point is commonly meant the temperature, or range, at which the solid turns liquid.
